What all share (format): cell-based
One test has as its system Huh7. The experiment in a line: Cancer cell proliferation inhibition, MTS assay, 72 hours. The following applies: Homo sapiens, Huh-7. In outline: (§1)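 Cells seeded at 3,000 cells/well in line-specific medium and grown 24 h at 37° C, 5% CO2, then exposed 72 h to serially diluted compound from 50 μM (0.05% DMSO). MTS/PMS added for 2 h at 37° C; OD450 read; IC50 from inhibition versus solvent control, three data sets.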

The test system of another test is FYN (MCP-1). The test is described as above. In outline:
as §1

For a further test, the system named is MDA-MB-231. The experiment in a line: Real time cell proliferation, IncuCyte ZOOM, 72 hours.
Another test has as its target T1, T315I (Ba/F3) (Homo sapiens, UniProt P00519, T315I, cells depend on it).
T1 construct: fused on or other part: P11274 (Breakpoint cluster region protein)
Kind of test: Cancer cell proliferation inhibition, CCK-8, 72 hours. The note with it: read-out: T315I (Ba/F3) IC50. In outline:
(§2)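 A375 cells (2×10^3/well) attached overnight, then received 9 three-fold dilutions (0.0015-10 μM). K562 and Ba/F3-T315I (1×10^4/well) were given 9-point series (3-fold and 5-fold respectively), final 0-10 μM. After 72 h at 37°C, CCK-8 was added for 2 h; blank-subtracted OD450 gave IC50.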

For another test, the system named is A375. The description is as above. In outline:
as §2

For a further test, the system named is K562. Described as above. In outline: as §2
In the next test the test system is SK-MEL-28. The experiment in a line: Cancer cell proliferation inhibition, MTS assay, 72 hours. The note with it: Homo sapiens. In outline: as §1
A further test relates to RET (LC2/ad-CDC6). The description is as above. A digest of the protocol:
as §1

Another test has as its system M-NFS-60. Kind of test: Cancer cell proliferation inhibition, CCK-8, 72 hours. In outline: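 Cells were grown in RPMI with 10% FBS, 0.05 mM 2-mercaptoethanol and human M-CSF, and seeded at 20000 cells/well. Compounds were added from a 3-fold DMSO dilution series topping at 1968 nM (dilution-plate concentration; 11 points including DMSO control). After 72 h at 37 °C, CCK-8 was added for 2 h and OD450 read.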

Where two headings read alike, the source gives them in different places.

For the compound `Cc1ccc(C(=O)Nc2ccc(CN3CCN(C)[C@H](C)C3)c(C(F)(F)F)c2)cc1C#Cc1cnc2c(Nc3cnn(CCCN(C)C)c3)cccn12` [Example 34, (R)-3-((8-((1-(3-(dimethylamino)propyl)-1H-pyrazol-4-yl)amino)imidazo[1,2-a]pyridin-3-yl)ethynyl)-N-(4-((3,4-dimethylpiperazin-1-yl)methyl)-3-(trifluoromethyl)phenyl)-4-methylbenzamide], the IC50 in the test on Huh7 is 70 nM; in the test with FYN (MCP-1), 9830 nM; in the test with MDA-MB-231 (Homo sapiens, MDA-MB-231, 72 h) it was 1010 nM; in the test on A375 (Homo sapiens, A-375, 72 h), 903 nM; with K562 (Homo sapiens, K562, 72 h) it was under 1 nM. Also, at T315I (Ba/F3), the GI50 was 831 nM.
Take `CCN1CCN(Cc2ccc(NC(=O)c3ccc(C)c(C#Cc4cnc5c(Nc6cnn(CC)c6)cccn45)c3)cc2C(F)(F)F)CC1` [Example 23, 3-((8-((1-ethyl-1H-pyrazol-4-yl)amino)imidazo[1,2-a]pyridin-3-yl)ethynyl)-N-(4-((4-ethylpiperazin-1-yl)methyl)-3-(trifluoromethyl)phenyl)-4-methylbenzamide]: the IC50 was 917 nM in the test on SK-MEL-28; 73.8 nM with Huh7; under 10 nM with RET (LC2/ad-CDC6) (72 h); 270 nM in the test with FYN (MCP-1); 342 nM in the test with MDA-MB-231 (Homo sapiens, MDA-MB-231, 72 h); 142 nM in the test on A375 (Homo sapiens, A-375, 72 h). In the test with K562 (Homo sapiens, K562, 72 h), this compound showed an IC50 of under 1 nM. Further, on T315I (Ba/F3), the GI50 amounted to 39 nM.
For `Cc1ccc(C(=O)Nc2ccc(CN3CCC(N(C)C)C3)c(C(F)(F)F)c2)cc1C#Cc1cnc2c(Nc3cnn(C)c3)cccn12` (stereo not drawn) [Example 32, N-(4-((3-(dimethylamino)pyrrolidin-1-yl)methyl)-3-(trifluoromethyl)phenyl)-4-methyl-3-((8-((1-methyl-1H-pyrazol-4-yl)amino)imidazo[1,2-a]pyridin-3-yl)ethynyl)benzamide], the IC50 with SK-MEL-28 was found to be 1150 nM; in the test on Huh7, 107 nM; in the test on FYN (MCP-1), 890 nM; with MDA-MB-231 (Homo sapiens, MDA-MB-231, 72 h), 456 nM; with M-NFS-60 it was 64.2 nM; in the test on A375 (Homo sapiens, A-375, 72 h), 406 nM. Further, in the test on K562 (Homo sapiens, K562, 72 h), the IC50 was under 1 nM. The GI50 on T315I (Ba/F3) was found to be 60.4 nM.
For the compound `Cc1ccc(C(=O)Nc2ccc(CN3CCN(C)[C@H](C)C3)c(C(F)(F)F)c2)cc1C#Cc1cnc2c(Nc3cnn(C(C)C)c3)cccn12` [Example 29, (R)—N-(4-((3,4-dimethylpiperazin-1-yl)methyl)-3-(trifluoromethyl)phenyl)-3-((8-((1-isopropyl-1H-pyrazol-4-yl)amino)imidazo[1,2-a]pyridin-3-yl)ethynyl)-4-methylbenzamide], the IC50 in the test with SK-MEL-28 was 717 nM; with Huh7, 30 nM; in the test on RET (LC2/ad-CDC6) it was under 100 nM; in the test on FYN (MCP-1), 3130 nM; with MDA-MB-231 (Homo sapiens, MDA-MB-231, 72 h) it was 963 nM; in the test on A375, 292 nM. This compound gave an IC50 in the test on K562 of 5 nM. Besides, the GI50 on T315I (Ba/F3) came out at 102 nM.
On to `CN1CCN(Cc2ccc(NC(=O)c3cccc(C#Cc4cnc5c(Nc6cnn(C)c6)cccn45)c3)cc2C(F)(F)F)CC1` [Example 60, 3-((8-((1-methyl-1H-pyrazol-4-yl)amino)imidazo[1,2-a]pyridin-3-yl)ethynyl)-N-(4-((4-methylpiperazin-1-yl)methyl)-3-(trifluoromethyl)phenyl)benzamide], for which the half-inhibitory concentration (IC50) is over 10 nM in the test on RET (LC2/ad-CDC6) (72 h); 1470 nM in the test on FYN (MCP-1); 289 nM in the test on MDA-MB-231 (Homo sapiens, MDA-MB-231, 72 h); 21.3 nM with M-NFS-60; 229 nM in the test with A375 (Homo sapiens, A-375, 72 h); under 1 nM with K562 (Homo sapiens, K562, 72 h). Further, the GI50 on T315I (Ba/F3) was determined as 34.8 nM.
Regarding `CN1CCN(Cc2ccc(NC(=O)c3ccc(F)c(C#Cc4cnc5c(Nc6cnn(C)c6)cccn45)c3)cc2C(F)(F)F)CC1` [Example 61, 4-fluoro-3-((8-((1-methyl-1H-pyrazol-4-yl)amino)imidazo[1,2-a]pyridin-3-yl)ethynyl)-N-(4-((4-methylpiperazin-1-yl)methyl)-3-(trifluoromethyl)phenyl)benzamide], the half-inhibitory concentration (IC50) in the test with RET (LC2/ad-CDC6) (72 h) was over 10 nM; in the test with FYN (MCP-1) it was 1170 nM; in the test with MDA-MB-231 (Homo sapiens, MDA-MB-231, 72 h) it was 268 nM; in the test on M-NFS-60 it was 45.3 nM; in the test with A375 (Homo sapiens, A-375, 72 h) it was 172 nM; in the test with K562 (Homo sapiens, K562, 72 h) it was under 1 nM. Moreover, the GI50 on T315I (Ba/F3) was determined as 58.6 nM.
`Cc1ccc(C(=O)Nc2ccc(CN3CCC(N(C)C)C3)c(C(F)(F)F)c2)cc1C#Cc1cnc2c(Nc3cnn(CCCN(C)C)c3)cccn12` (stereo not drawn) [Example 35, 3-((8-((1-(3-(dimethylamino)propyl)-1H-pyrazol-4-yl)amino)imidazo[1,2-a]pyridin-3-yl)ethynyl)-N-(4-((3-(dimethylamino)pyrrolidin-1-yl)methyl)-3-(trifluoromethyl)phenyl)-4-methylbenzamide]: the half-maximal inhibitory concentration (IC50) with Huh7 is 66 nM; in the test with FYN (MCP-1) it was 1120 nM; in the test on MDA-MB-231 (Homo sapiens, MDA-MB-231, 72 h), 1110 nM; in the test with A375 (Homo sapiens, A-375, 72 h) it was 1280 nM; in the test on K562 (Homo sapiens, K562, 72 h), under 1 nM. The GI50 on T315I (Ba/F3) came out at 247 nM.
On to `Cc1ccc(NC(=O)c2ccc(CN3CCN(C)CC3)c(C(F)(F)F)c2)cc1C#Cc1cnc2c(Nc3cnn(C)c3)cccn12` [Example 80, N-(4-methyl-3-((8-((1-methyl-1H-pyrazol-4-yl)amino)imidazo[1,2-a]pyridin-3-yl)ethynyl)phenyl)-4-((4-methylpiperazin-1-yl)methyl)-3-(trifluoromethyl)benzamide], for which the 50% inhibitory concentration (IC50) is 89 nM with Huh7; 1870 nM in the test on FYN (MCP-1); 320 nM in the test with MDA-MB-231 (Homo sapiens, MDA-MB-231, 72 h); 46 nM in the test on M-NFS-60; 132 nM with A375 (Homo sapiens, A-375, 72 h); under 1 nM in the test on K562 (Homo sapiens, K562, 72 h). Besides, the GI50 on T315I (Ba/F3) came to 82.4 nM.
On to `CCN1CCN(Cc2ccc(NC(=O)c3ccc(C)c(C#Cc4cnc5c(Nc6cnn(CCCN(C)C)c6)cccn45)c3)cc2C(F)(F)F)CC1` [Example 33, 3-((8-((1-(3-(dimethylamino)propyl)-1H-pyrazol-4-yl)amino)imidazo[1,2-a]pyridin-3-yl)ethynyl)-N-(4-((4-ethylpiperazin-1-yl)methyl)-3-(trifluoromethyl)phenyl)-4-methylbenzamide], for which the IC50 in the test on Huh7 was 82 nM; with FYN (MCP-1), 2040 nM; in the test with MDA-MB-231 (Homo sapiens, MDA-MB-231, 72 h), 444 nM; in the test with M-NFS-60, 32.1 nM; with A375 (Homo sapiens, A-375, 72 h), 452 nM; in the test with K562 (Homo sapiens, K562, 72 h) it was under 1 nM. The GI50 at T315I (Ba/F3) was found to be 156 nM.
For the compound “N-(4-((3-(dimethylamino)pyrrolidin-1-yl)methyl)-3-(trifluoromethyl)phenyl)-4-methyl-3-((8-((1-methyl-1H-pyrazol-4-yl)amino)imidazo[1,2-a]pyridin-3-yl)ethynyl)benzamide [Example 55]”, the IC50 in the test on FYN (MCP-1) is 5600 nM; with MDA-MB-231, 755 nM; in the test with A375, 791 nM; in the test on K562 it was under 1 nM. The GI50 at T315I (Ba/F3) was 97.5 nM.
For the compound `Cc1ccc(C(=O)Nc2ccc(CN3CCC(F)(F)CC3)c(C(F)(F)F)c2)cc1C#Cc1cnc2c(Nc3cnn(C)c3)cccn12` [Example 52, N-(4-((4,4-difluoropiperidin-1-yl)methyl)-3-(trifluoromethyl)phenyl)-4-methyl-3-((8-((1-methyl-1H-pyrazol-4-yl)amino)imidazo[1,2-a]pyridin-3-yl)ethynyl)benzamide], the half-inhibitory concentration (IC50) in the test on RET (LC2/ad-CDC6) (72 h) is over 10 nM; with FYN (MCP-1) it was 9520 nM; in the test with MDA-MB-231 (Homo sapiens, MDA-MB-231, 72 h) it was over 10000 nM; in the test with A375 (Homo sapiens, A-375, 72 h), over 10000 nM; in the test on K562 (Homo sapiens, K562, 72 h) it was 16 nM. The GI50 on T315I (Ba/F3) stood at 195 nM.

For the origin of these results see patent publication US10870647B2, “Imidazopyridine derivative, method for preparing same, and pharmaceutical composition containing same as active ingredient for preventing or treating cancer” (DAEGU-GYEONGBUK MEDICAL INNOVATION FOUNDATION, priority 2016, dated 2020).
